Format in all cases: biochemical
In one test the target is T1, Aurora A kinase (Homo sapiens, UniProt O14965).
T1 construct: purchased Upstate
T1 sequence (O14965 1-403): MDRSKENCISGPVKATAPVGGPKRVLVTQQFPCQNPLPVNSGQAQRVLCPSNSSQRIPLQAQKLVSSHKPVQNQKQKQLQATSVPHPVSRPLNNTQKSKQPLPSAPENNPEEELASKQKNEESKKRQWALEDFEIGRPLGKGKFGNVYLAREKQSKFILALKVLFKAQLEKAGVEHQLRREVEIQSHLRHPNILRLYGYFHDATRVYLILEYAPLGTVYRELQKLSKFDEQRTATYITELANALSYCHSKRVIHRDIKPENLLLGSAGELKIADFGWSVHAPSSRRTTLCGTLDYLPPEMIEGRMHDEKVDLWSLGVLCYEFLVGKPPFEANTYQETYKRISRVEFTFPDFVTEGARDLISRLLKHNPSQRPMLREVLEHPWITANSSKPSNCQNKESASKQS
The test is described as follows: Aurora A kinase assay ([γ-33P]ATP, CHOCKtide substrate). Particulars: for inhibition at 1 µM: 1.0 μM test compound. In outline:
(§1)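 Recombinant Aurora A (1 ng) or Aurora B (2.5 ng) incubated with test compound, CHOCKtide (1 μg) and [γ-33P]ATP/ATP at 10 μM (Aurora A) or 40 μM (Aurora B), 30 min at 33 °C. Stopped with phosphoric acid; filter-bound 33P counted; IC50 = half-maximal inhibition.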

The target of a further test is T2, Aurora B kinase (Homo sapiens, UniProt Q96GD4).
T2 construct: purchased Cell signaling
Kind of test: Aurora B kinase assay ([γ-33P]ATP, CHOCKtide substrate). Particulars: 1.0 μM test compound. Put shortly: as §1

A further test deals with T3, VEGFR2 kinase (Homo sapiens, UniProt P35968).
T3 construct: recombinant N-terminal 6×His-tagged VEGFR2 kinase domain construct expressed by baculovirus; 6xHis (N); made in house
Kind of test: VEGFR2 kinase assay (33P incorporation into Poly(Glu-Tyr)). To be noted: 500 nM test compound; read-out: Inhibition at 500 nM (%) VEGFr-2. The method, then:
Inhibition of VEGFR2 kinase activity by compounds disclosed herein was quantified by measuring the amount of [^33P] incorporated into the substrate in the presence of a test compound. Specifically, a reaction mixture with a final volume of 25 μL and containing 6.25 ng of VEGFR2 kinase (obtained by purifying recombinant N-terminal 6×His-tagged VEGFR2 kinase domain construct expressed by baculovirus), 5 μg of substrate (Poly (Glu-Tyr, 4:1, Sigma)), kinase reaction buffer (20 mM MOPS pH 7.0, 1 mM EDTA, 5% glycerol, 0.01% Brij-35, 0.1% β-mercaptoethanol, 1 mg/mL BSA, 100 μM ATP, 0.1 μCi per well [^33P]-γ-ATP (2,500-3,000 Ci/mmol), and 500 nM test compound (final concentration of DMSO was 4%) or 4% DMSO alone (as the control sample), was incubated at 30° C. for 30 minutes. The reaction was then stopped by adding 5 μL of 3% phosphoric acid solution. The resultant solution was transferred to and harvested by a filter plate (UniFilter-96 GF/B, PerkinElmer). The filter plate was then washed 20 times with d.d. H2O for 5 min followed by the addition of 30 μL of MicroScint™-20 Cocktail (PerkinElmer). After the plate was sealed, the retained radioactivity on the filter was counted using a TopCount scintillation detector (PerkinElmer). The percentage of inhibition rate of the test compound was calculated by dividing the retained radioactivity of the test sample with the retained radioactivity of the control sample and shown in Table 3.

The next test has as its target T4, PDGFR-β kinase (Homo sapiens, UniProt P09619).
T4 construct: recombinant N-terminal 6×His-tagged PDGFR-β kinase domain construct expressed by baculovirus; 6xHis (N); made in house
Kind of test: PDGFR-β kinase assay (33P incorporation into Poly(Glu-Tyr)). Particulars: 500 nM test compound. On the procedure:
Inhibition of PDGFR-β kinase activity by compounds disclosed herein was quantified by measuring the amount of [^33P] incorporated into the substrate in the presence of a test compound. Briefly, a reaction mixture of 25 μL final volume containing 55 ng of PDGFR-β kinase (obtained by purifying recombinant N-terminal 6×His-tagged PDGFR-β kinase domain construct expressed by baculovirus), 2.5 μg of the substrate (Poly (Glu-Tyr, 4:1, Sigma)), kinase reaction buffer (20 mM MOPS pH 7.0, 1 mM EDTA, 5% glycerol, 0.01% Brij-35, 0.1% β-mercaptoethanol, 1 mg/mL BSA, 2 mM MnCl2, 30 μM ATP, 0.1 μCi per well [^33P]-γ-ATP (2,500-3,000 Ci/mmol)), and a test compound (500 nM, diluted with 4% DMSO) or DMSO (as the control) was incubated at 30° C. for 30 minutes. The reaction was stopped by adding 5 μL of 3% phosphoric acid solution. The resultant reaction solution was then harvested onto a filter plate (UniFilter-96 GF/B, PerkinElmer), washed 20 times for 5 min with d.d. H2O, and followed by the addition of 30 μL of MicroScint™-20 Cocktail (PerkinElmer). The plate was then sealed and counted using a TopCount scintillation detector (PerkinElmer). The percentage of inhibition rate of the test compound was calculated by dividing the retained radioactivity of the test sample with the retained radioactivity of the control sample and shown in Table 3.

The target of another test is T5, Flt3 kinase (Homo sapiens, UniProt P36888).
T5 construct: recombinant N-terminal 6×His-tagged Flt3 kinase domain construct expressed from baculovirus; 6xHis (N); made in house
T5 sequence (P36888 610-943 limits assumed): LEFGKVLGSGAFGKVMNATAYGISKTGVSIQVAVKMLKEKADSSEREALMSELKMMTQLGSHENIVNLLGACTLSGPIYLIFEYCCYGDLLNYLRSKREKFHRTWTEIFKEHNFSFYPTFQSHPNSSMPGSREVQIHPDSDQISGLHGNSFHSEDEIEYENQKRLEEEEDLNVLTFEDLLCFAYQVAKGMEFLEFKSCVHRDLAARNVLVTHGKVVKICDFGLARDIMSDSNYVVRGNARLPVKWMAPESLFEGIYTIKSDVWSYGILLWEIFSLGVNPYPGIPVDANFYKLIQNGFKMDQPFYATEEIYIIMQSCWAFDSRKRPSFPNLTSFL
Kind of test: Flt3 kinase assay (33P incorporation into Poly(Glu-Tyr)). To be noted: 100 nM test compound; read-out: Inhibition at 100 nM (%) Flt-3. The method, then:
Inhibition of Flt3 kinase activity by compounds disclosed herein was quantified by measuring the amount of [^33P] incorporated into the substrate in the presence of a test compound. Briefly, a reaction mixture of 25 μL final volume containing 5 ng of Flt3 kinase (obtained by purifying recombinant N-terminal 6×His-tagged Flt3 kinase domain construct expressed from baculovirus), 5 μg of the substrate (Poly (Glu-Tyr, 4:1, Sigma)), kinase reaction buffer (20 mM MOPS pH 7.0, 1 mM EDTA, 5% glycerol, 0.01% Brij-35, 0.1% β-mercaptoethanol, 1 mg/mL BSA, 100 μM ATP, 0.1 μCi per well [^33P]-γ-ATP (2,500-3,000 Ci/mmol)), and a test compound (100 nM, diluted with 4% DMSO) or DMSO (as the control) was incubated at 30° C. for 30 minutes. The reaction was stopped by adding 5 μL of 3% phosphoric acid solution. The resultant reaction solution was then harvested onto a filter plate (UniFilter-96 GF/B, PerkinElmer), washed 20 times for 5 min with d.d. H2O, and followed by the addition of 30 μL of MicroScint™-20 Cocktail (PerkinElmer). The plate was then sealed and counted using a TopCount scintillation detector (PerkinElmer). The percentage of inhibition rate of the test compound was calculated by dividing the retained radioactivity of the test sample with the retained radioactivity of the control sample and shown in Table 3.

Another test deals with T6, c-Met kinase (Homo sapiens, UniProt P08581).
T6 construct: recombinant N-terminal 6×His-tagged c-Met kinase domain construct expressed from baculovirus; 6xHis (N); made in house
Kind of test: c-Met kinase assay (33P incorporation into Poly(Glu-Tyr)). Particulars: 500 nM test compound. In outline:
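Recombinant N-terminal 6×His-tagged c-Met kinase domain (baculovirus-expressed, 5 ng) acted on Poly(Glu-Tyr) 4:1 with 100 μM ATP plus [33P]-γ-ATP in MOPS pH 7.0 buffer, 30 min at 30° C. Compound was at 500 nM. Filter-retained radioactivity was compared with the DMSO control to give percent inhibition.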

pIC50: −log10 of the molar value.

T2 sequence (Q96GD4 whole entry): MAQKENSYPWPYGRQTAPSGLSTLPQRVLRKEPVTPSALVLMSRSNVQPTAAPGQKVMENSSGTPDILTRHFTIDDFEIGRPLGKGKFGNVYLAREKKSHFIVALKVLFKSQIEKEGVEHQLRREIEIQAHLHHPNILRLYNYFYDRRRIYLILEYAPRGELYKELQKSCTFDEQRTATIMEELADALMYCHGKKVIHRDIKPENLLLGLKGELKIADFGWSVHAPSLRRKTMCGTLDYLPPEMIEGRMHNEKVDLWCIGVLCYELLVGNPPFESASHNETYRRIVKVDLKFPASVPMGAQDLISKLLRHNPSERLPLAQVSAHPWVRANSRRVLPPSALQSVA
T6 sequence (P08581 1078-1345 limits assumed): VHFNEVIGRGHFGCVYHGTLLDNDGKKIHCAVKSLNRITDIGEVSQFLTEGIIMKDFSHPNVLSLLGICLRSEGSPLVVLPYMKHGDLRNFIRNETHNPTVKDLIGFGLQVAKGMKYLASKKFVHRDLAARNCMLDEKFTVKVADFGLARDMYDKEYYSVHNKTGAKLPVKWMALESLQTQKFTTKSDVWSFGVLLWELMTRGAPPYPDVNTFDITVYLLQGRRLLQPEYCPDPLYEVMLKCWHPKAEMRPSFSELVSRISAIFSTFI
T3 sequence (P35968 834-1162 limits assumed): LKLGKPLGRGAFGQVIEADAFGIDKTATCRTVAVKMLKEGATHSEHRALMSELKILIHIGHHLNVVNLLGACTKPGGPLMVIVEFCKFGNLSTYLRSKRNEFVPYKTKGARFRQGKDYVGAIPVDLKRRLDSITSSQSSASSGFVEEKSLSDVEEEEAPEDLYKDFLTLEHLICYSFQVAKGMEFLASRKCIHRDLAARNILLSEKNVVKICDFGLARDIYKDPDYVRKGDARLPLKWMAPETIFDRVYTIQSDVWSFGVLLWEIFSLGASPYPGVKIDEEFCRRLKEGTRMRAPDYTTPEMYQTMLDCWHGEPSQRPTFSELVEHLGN
T4 sequence (P09619 600-962 limits assumed): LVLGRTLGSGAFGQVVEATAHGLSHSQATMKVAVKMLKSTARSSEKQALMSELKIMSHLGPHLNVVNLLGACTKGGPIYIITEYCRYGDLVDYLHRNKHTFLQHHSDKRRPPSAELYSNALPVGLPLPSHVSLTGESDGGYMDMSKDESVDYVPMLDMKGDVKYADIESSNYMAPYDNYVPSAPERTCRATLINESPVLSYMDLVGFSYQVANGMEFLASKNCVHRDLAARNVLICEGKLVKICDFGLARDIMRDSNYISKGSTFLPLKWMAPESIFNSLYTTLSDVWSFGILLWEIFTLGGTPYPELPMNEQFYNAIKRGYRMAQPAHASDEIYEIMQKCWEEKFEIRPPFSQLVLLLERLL

As to `O=C(O)CCc1c(/C=C2\C(=O)Nc3ccc(NC(=O)c4ccc([N+](=O)[O-])cc4)cc32)[nH]c2c1C(=O)CCC2` [DCB-70142, (Z)-3-(2-((5-(4-nitrobenzamido)-2-oxoindolin-3-ylidene)methyl)-4-oxo-4,5,6,7-tetrahydro-1H-indol-3-yl)propanoic acid], the results for the inhibition at 1 µM on Aurora A kinase and on Aurora B kinase were 27.1% and 2.4%, respectively. Also, the inhibition (as a rule, the relative decrease from the control value, in per cent) at 0.5 µM came to 44.8% on VEGFR2 kinase and 7.9% on PDGFR-β kinase. Besides, on Flt3 kinase, the inhibition at 0.1 µM was 11.8%.
For the molecule `CCOC(=O)CCc1c(/C=C2\C(=O)Nc3cc(-c4ccc(O)cc4)ccc32)[nH]c2c1C(=O)CCCC2` [DCB-70150, (Z)-ethyl 3-(2-((6-(4-hydroxyphenyl)-2-oxoindolin-3-ylidene)methyl)-4-oxo-1,4,5,6,7,8-hexahydrocyclohepta[b]pyrrol-3-yl)propanoate], the inhibition at 1 µM amounted to 8.9% against Aurora A kinase and 18% at Aurora B kinase. Moreover, the inhibition at 0.5 µM at c-Met kinase was 0.2%. Besides, the inhibition at 0.1 µM at Flt3 kinase was 17.1%.
Regarding `O=C(O)CCc1c(/C=C2\C(=O)Nc3cc(-c4ccc(O)cc4)ccc32)[nH]c2c1C(=O)CCCC2` [DCB-70151, (Z)-3-(2-((6-(4-hydroxyphenyl)-2-oxoindolin-3-ylidene)methyl)-4-oxo-1,4,5,6,7,8-hexahydrocyclohepta[b]pyrrol-3-yl)propanoic acid], the inhibition at 1 µM against Aurora A kinase came out at 37.2%; against Aurora B kinase, 23.6%. In addition, the inhibition at 0.5 µM against c-Met kinase was -6.5%. Moreover, on Flt3 kinase, the inhibition at 0.1 µM amounted to 42.2%.
`CCN(CC)CCNC(=O)CCc1c(/C=C2\C(=O)Nc3ccc(S(=O)(=O)N4CCc5ccccc54)cc32)[nH]c(C)c1C(C)=O` [DCB-70214, (Z)-3-(4-acetyl-2-((5-(indolin-1-ylsulfonyl)-2-oxoindolin-3-ylidene)methyl)-5-methyl-1H-pyrrol-3-yl)-N-(2-(diethylamino)ethyl)propanamide]: the inhibition at 1 µM against Aurora A kinase amounted to 15.4%; on Aurora B kinase it was 14.8%. Further, on c-Met kinase, the inhibition at 0.5 µM was found to be 56.3%.
For `CN1CCN(C(=O)CCc2c(/C=C3\C(=O)Nc4ccc(NS(=O)(=O)c5ccccc5)cc43)[nH]c3c2C(=O)CCC3)CC1` [DCB-70218, (Z)-N-(3-((3-(3-(4-methylpiperazin-1-yl)-3-oxopropyl)-4-oxo-4,5,6,7-tetrahydro-1H-indol-2-yl)methylene)-2-oxoindolin-5-yl)benzenesulfonamide], on Aurora A kinase, the pIC50 (in general, the negative decadic logarithm of the IC50, by convention in mol/L) is 6.08. Further, the inhibition at 1 µM worked out at 62% against Aurora A kinase and 54.2% on Aurora B kinase. Also, the inhibition at 0.5 µM against c-Met kinase amounted to 9.2%.
Regarding `CC(=O)c1c(C)[nH]c(/C=C2\C(=O)Nc3ccc(NS(=O)(=O)c4ccccc4)cc32)c1CCC(=O)N1CCN(C)CC1` [DCB-70219, (Z)-N-(3-((4-acetyl-5-methyl-3-(3-(4-methylpiperazin-1-yl)-3-oxopropyl)-1H-pyrrol-2-yl)methylene)-2-oxoindolin-5-yl)benzenesulfonamide], the inhibition at 1 µM against Aurora A kinase turned out to be 25.7%; against Aurora B kinase it was 14.8%. The inhibition at 0.5 µM at c-Met kinase was 17.7%.
Regarding `CCN(CC)CCCc1c(/C=C2\C(=O)Nc3ccc(S(=O)(=O)Cc4c(Cl)cccc4Cl)cc32)[nH]c2c1C(=O)CCC2` [DCB-70222, (Z)-5-(2,6-dichlorobenzylsulfonyl)-3-((3-(3-(diethylamino)propyl)-4-oxo-4,5,6,7-tetrahydro-1H-indol-2-yl)methylene)indolin-2-one], the inhibition at 1 µM was 95.7% against Aurora A kinase and 83.2% on Aurora B kinase. For the same molecule, the inhibition at 0.5 µM against c-Met kinase is 95.6%.
